Patent US20050119197A1, “Naadp analogues for modulating t-cell activity” (priority 2000, published 2005)

Tests used:
Assay type in all cases: cell-based, human
Jurkat T cells [1] = test: Ca^2+ signals in single intact Jurkat T-lymphocytes microinjected with compound (ratiometric Fura2 Ca^2+ imaging); details: 50 nM microinjected; nominal Ca^2+-free buffer; data not shown
[2] = test system: OKT3-mediated Ca^2+-signaling (TCR/CD3 complex); test: Effect of microinjected NAADP^+ on OKT3-induced Ca^2+ signaling in single Jurkat T-lymphocytes
Experimental: Jurkat T-lymphocytes were loaded with Fura2/AM and ratiometric Ca^2+ imaging and parallel microinjection in the presence of 1 mM extracellular Ca^2+ was carried out as detailed under ‘Experimental Procedures’. The cells were injected with different concentrations of NAADP^+ and then OKT3(10 μg/ml) was added. Injection of intracellular buffer (A), NAADP^+ (50 nM [B] and 10 μM [C]), and addition of OKT3 is indicated by arrows. Data are presented as a typical tracing from one individual cell, for each condition at least 3 experiments were carried out.
(§1) Batches of 10^7 Jurkat T cells were loaded with Fura2/AM as described (Guse et al., 1993). Fura2-loaded cells (10^7 cells/5 ml) were kept at room temperature until use. Glass coverslips were coated first with bovine serum albumin (5 mg/ml), and then with poly-L-lysine (0.1 mg/ml). Small chambers consisting of a rubber O-ring were sealed on the coverslips by silicon grease. Then 90 μl of extracellular buffer (140 mM NaCl, 5 mM KCl, 1 mM MgSO4, 1 mM CaCl2, 20 mM Hepes, 1 mM NaH2PO4, 5.5 mM glucose, pH 7.4) was added, followed by addition of 10 μl cell suspension. The coverslip was mounted on the stage of an inverted microscope (Axiovert 100, Zeiss, Oberkochingen, Germany). […] Ratio images (340/380) were constructed pixel by pixel, and changes in the ratio over time were measured by applying “regions-of-interest” on individual cells. […]

[3] = test system: cADPR-mediated Ca^2+-signal; test: Co-injection of NAADP^+ with cADPR in Jurkat T-lymphocytes
Experimental: (§2) Jurkat T-lymphocytes were loaded with Fura2/AM and ratiometric Ca^2+ imaging and parallel microinjection in the presence of 1 mM extracellular Ca^2+ was carried out as detailed under ‘Experimental Procedures’. […] Shown are (n=number of experiments): A/F, coinjection of NAADP (50 nM) and 8-OCH3-cADPR (100 μM) (n=7); B/G, injection of NAADP^+ (50 nM, n=10); C/H, coinjection of NAADP^+ (10 μM) and cADPR (10 μM) (n=7); D/I, coinjection of NAADP^+ (50 nM) and cADPR (10 μM) (n=5); E/J, injection of cADPR (10 μM, n=5).
as §1

Jurkat T cells [4] = test: Ca^2+ signals in single intact Jurkat T-lymphocytes microinjected with compound (ratiometric Fura2 Ca^2+ imaging); details: for Ca^2+ signal after microinjection: 1 mM extracellular Ca^2+
Experimental: Jurkat T-lymphocytes were loaded with Fura2/AM and Ca^2+ was measured as detailed under ‘Experimental Procedures’. Cells were injected as described in Experimental Procedures’ in the presence of 1 mM extacellular Ca^2+. Data are presented as overlays of single tracings of individual cells (left panel). […] As a control vehicle buffer without NAADP^+ was injected (A,B). The time point of microinjection is indicated by arrows.
Data from FIG. 1 are shown as mean values (n=5 to 17) from time point 80 sec (Ca^2+ peak; A) or 400 sec (Ca^2+ plateau; B).
Jurkat T-lymphocytes were loaded with Fura2/AM and ratiometric Ca^2+ imaging and parallel microinjection in the presence of 1 mM extracellular Ca^2+ was carried out as detailed under ‘Experimental Procedures’. Cells were injected with 50 nM NAADP^+ (A) or NADP^+ (B). Shown are the averages from 13 (A) and 5 (B) cells. The time point of microinjection is indicated by arrows.
Jurkat T lymphocytes (subclone JMP) were cultured in RPMI 1640 medium containing the following additions: Glutamax I, HEPES (20 mM, pH 7.4), NCS (7.5%), penicillin (100 U/ml) and streptomycin (50 μg/ml; all obtained from Life Technologies, Eggenstein, Germany). The cells were cultured at 37° C. in a humidified atmosphere in the presence of 5% CO2.
Batches of 10^7 Jurkat T cells were loaded with Fura2/AM as described (Guse et al., 1993). Fura2-loaded cells (10^7 cells/5 ml) were kept at room temperature until use. Glass coverslips were coated first with bovine serum albumin (5 mg/ml), and then with poly-L-lysine (0.1 mg/ml). Small chambers consisting of a rubber O-ring were sealed on the coverslips by silicon grease. Then 90 μl of extracellular buffer (140 mM NaCl, 5 mM KCl, 1 mM MgSO4, 1 mM CaCl2, 20 mM Hepes, 1 mM NaH2PO4, 5.5 mM glucose, pH 7.4) was added, followed by addition of 10 μl cell suspension. The coverslip was mounted on the stage of an inverted microscope (Axiovert 100, Zeiss, Oberkochingen, Germany). Ratiometric Ca^2+-imaging was performed using a PhotoMed/Photon Technology (Wedel, Germany) digital imaging system built around the Axiovert 100 microscope. Illumination at 340 and 380 nm was carried out using a chopper/optical filter system. Images were captured by an intensified CCD camera (type C2400-77; spatial resolution: 525×487 pixel; Hamamatsu, Garching, Germany) and stored as individual 340 and 380 images on harddisk. Sampling rate was usually 5 sec for a pair of images (340 and 380 nm) using 100-fold magnification. Data analysis was performed off-line using PhotoMed/Photon Technology (Wedel, Germany) “Image master” analysis software. Ratio images (340/380) were constructed pixel by pixel, and changes in the ratio over time were measured by applying “regions-of-interest” on individual cells. Finally, ratio values were converted to Ca^2+-concentrations by external calibration.
Parallel Ca^2+ imaging and microin ection experiments require a firm attachment of the Jurkat T cells without preactivation of intracellular Ca^2+-signaling. This was achieved by the above mentioned coating procedure of the glass coverslips, as detailed earlier (Guse et al., 1997). The cells were kept in a small chamber (100 μl volume) in extracellular buffer (140 mM NaCl, 5 mM KCl, 1 mM MgSO4, 1 mM CaCl2, 20 mM Hepes, 1 mM NaH2PO4, 5.5 mM glucose, pH 7.4). Compounds to be microinjected were cleared from particles by either filtration through 0.45 μm filters, by centrifugation in an Eppendorf centrifuge at maximal speed for 10 min, or by both. Femtotips II (Eppendorf-Netheler-Hintz, Hamburg, Germany) were filled with 5 μl of reagent solution and inserted into the semi-automatic Eppendorf microinjection system (Transjector 5246, Micromanipulator 5171, Eppendorf-Netheler-Hintz, Hamburg, Germany). Injection parameters were: injection pressure: 80 hPa, compensatory pressure: 40 hPa, duration of injection: 0.5 sec, velocity of pipette: 700 μm/sec, pipette angle: 45°. Injections were performed into the upper part of the cell.

[5] = test system: Ins(1,4,5)P3-mediated Ca^2+-release; test: Co-injection of NAADP^+ with Ins(1,4,5)P3 in Jurkat T-lymphocytes
Experimental: (§3) Jurkat T-lymphocytes were loaded with Fura2/AM and ratiometric Ca^2+ imaging and parallel microinjection in the presence of 1 mM extracellular Ca^2+ was carried out as detailed under ‘Experimental Procedures’. […] Shown are: A/F, coinjection of NAADP^+ (50 nM) and […] (40 μM) (n=7); B/G, injection of NAADP^+ (50 nM) (n=10); C/H, coinjection of NAADP^+ (10 μM) and Ins(1,4,5)P3 (4 μM) (n=9); D/I, coinjection of NAADP^+ (50 nM) and Ins(1,4,5)P3 (4 μM) (n=3); E/J injection of Ins(1,4,5)P3 (4 μM; n=8)
as §1

[6] = test system: NAADP^+-mediated Ca^2+-signaling; test: Co-injection of antagonists with NAADP^+: influence on NAADP^+-mediated Ca^2+-signaling in Jurkat T-lymphocytes
Experimental: as §2, §3
Batches of 10^7 Jurkat T cells were loaded with Fura2/AM as described (Guse et al., 1993). Fura2-loaded cells (10^7 cells/5 ml) were kept at room temperature until use. Glass coverslips were coated first with bovine serum albumin (5 mg/ml), and then with poly-L-lysine (0.1 mg/ml). Small chambers consisting of a rubber O-ring were sealed on the coverslips by silicon grease. Then 90 μl of extracellular buffer (140 mM NaCl, 5 mM KCl, 1 mM MgSO4, 1 mM CaCl2, 20 mM Hepes, 1 mM NaH2PO4, 5.5 mM glucose, pH 7.4) was added, followed by addition of 10 μl cell suspension. The coverslip was mounted on the stage of an inverted microscope (Axiovert 100, Zeiss, Oberkochingen, Germany). Ratiometric Ca^2+-imaging was performed using a PhotoMed/Photon Technology (Wedel, Germany) digital imaging system built around the Axiovert 100 microscope. Illumination at 340 and 380 nm was carried out using a chopper/optical filter system. […] Ratio images (340/380) were constructed pixel by pixel, and changes in the ratio over time were measured by applying “regions-of-interest” on individual cells. […]

[7] = Ins(1,4,6)PS3 40 μM co-injected with NAADP^+ 50 nM, vs NAADP^+ alone

Compound: Nc1ncnc2c1ncn2[C@@H]1O[C@H](COP(=O)(O)OP(=O)(O)OCC2OC([n+]3cccc(C(=O)[O-])c3)C(O)C2O)[C@@H](O)[C@H]1OP(=O)(O)O (stereo in doubt) [NAADP^+, nicotinic acid adenine dinucleotide phosphate]
- high initial Ca^2+-spike in nominal Ca^2+-free extracellular buffer (Jurkat T cells [1]): massively reduced
- effect on OKT3-mediated Ca^2+-signal ([2]; NAADP^+ 50 nM microinjected prior to OKT3 10 μg/ml): did not significantly change
- effect on OKT3-mediated Ca^2+-signaling ([2]; NAADP^+ 10 μM (desensitizing) microinjected before OKT3 10 μg/ml): dramatic inhibition
- effect on cADPR-mediated Ca^2+ signals ([3]; NAADP^+ 50 nM co-injected with cADPR 10 μM): did not significantly change
- effect on cADPR-mediated Ca^2+-signal ([3]; NAADP^+ 10 μM (self-desensitizing) co-injected with cADPR 10 μM): massive decrease
- longlasting Ca^2+-signal as measured at 400 s (Jurkat T cells [4]; 100 nM, Ca^2+ plateau, FIG. 2B): only minor changes
- optimal concentration for the initial Ca^2+-peak (bell shaped dose response curve) (Jurkat T cells [4]; Ca^2+ peak at 80 sec, FIG. 2A): 100 nM
- Ca^2+ signal after microinjection (Jurkat T cells [4]; pipette concentration 0.1 nM): without effect in most of the cells
- Ca^2+ signal after microinjection (Jurkat T cells [4]; pipette concentration 1 nM): without effect in most of the cells
- Ca^2+ signal after microinjection (Jurkat T cells [4]; pipette concentration 10 nM): stimulated repetitive, longlasting Ca^2+ spiking of low amplitude
- Ca^2+ signal after microinjection (Jurkat T cells [4]; pipette concentration 10 nM, listed as NAADP+): evokes repetitive and longlasting Ca^2+ oscillations of low amplitude
- Ca^2+ signal after microinjection (Jurkat T cells [4]; pipette concentration 50 nM): an initial, rapidly occurring Ca^2+-peak with a high amplitude
- Ca^2+ signal after microinjection (Jurkat T cells [4]; pipette concentration 50 nM, listed as NAADP+): a rapid and high initial Ca^2+ peak followed by trains of smaller Ca^2+ oscillations
- Ca^2+ signal after microinjection (Jurkat T cells [4]; pipette concentration 100 nM): a rapid and high initial Ca^2+ peak followed by trains of smaller Ca^2+ oscillations
- Ca^2+ signal after microinjection (Jurkat T cells [4]; pipette concentration 1 μM): gradually reduce the initial Ca^2+ peak
- Ca^2+ signal after microinjection (Jurkat T cells [4]; pipette concentration 10 μM): gradually reduce the initial Ca^2+ peak
- Ca^2+ signal after microinjection (Jurkat T cells [4]; pipette concentration 100 μM): no signal was detectable
- Ca^2+ signal after microinjection (Jurkat T cells [4]; pipette concentration 100 μM, listed as NAADP+): complete self-inactivation of Ca^2+-signals
- Ca^2+ signal on co-injection with Ins(1,4,5)P3 ([5]; NAADP^+ 50 nM co-injected with Ins(1,4,5)P3 4 μM): high initial Ca^2+ peak
- effect on Ins(1,4,5)P3-mediated Ca^2+-release ([5]; NAADP^+ 10 μM (desensitizing) co-injected with Ins(1,4,5)P3 4 μM): almost complete inhibition

Compound: COc1nc2c(=N)n3cnc2n1C1OC(COP(=O)(O)OP(=O)(O)OCC2OC3C(O)C2O)C(O)C1O (stereo not drawn) [8-OCH3-cADPR]
- effect on NAADP^+-mediated Ca^2+-signaling ([6]; 8-OCH3-cADPR 100 μM co-injected with NAADP^+ 50 nM): did not significantly affect

Compound: OC1C(O)C(OP(O)(O)=S)C(OP(O)(O)=S)C(O)C1OP(O)(O)=S (stereo not drawn) [Ins(1,4,6)PS3]
- decay of the initial Ca^2+ peak of NAADP^+-mediated signal [6, 7]: faster decay
- effect on initial Ca^2+ peak of NAADP^+-mediated signal [6, 7]: partial reduction

Compound: nicotinamide-adenine dinucleotide phosphate [NADP^+]
- Ca^2+ signal after microinjection (Jurkat T cells [4]; pipette concentration 50 nM): completely without effect
